From patent US20240316047A1, “INHIBITORS OF RNA HELICASE DHX9 AND USES THEREOF” (ACCENT THERAPEUTICS, INC., priority 2022, published 2024) come the findings set out here.

Experiment [1] addresses Human recombinant DHX9 protein (Homo sapiens (Human), UniProt Q08211). Put plainly: DHX9 ATPase assay (ADP-Glo). The experiment is classed as biochemical. As to conditions: for pIC50: read-out: DHX9 Biochemical Inflection Point. In general terms: In ADP-Glo the light output rises with the ADP produced.
Experiment [2] deals with circBRIP1 in HCT116 cells. Put plainly: DHX9 circBRIP1 cellular target engagement SYBR Green assay. It counts as cell-based. Particulars: values marked +; read-out: DHX9 Cellular Target Engagement EC50.
The test system of experiment [3] is circBRIP1 in HCT116 cells. The experiment can be described thus: DHX9 circBRIP1 cellular target engagement TaqMan multiplex assay. The experiment is classed as cell-based. Particulars: read-out: DHX9 Cellular Target Engagement. In general terms: Quantitative PCR measures a nucleic acid by following its amplification.
Setting [4] is: Homo sapiens, HCT-116, Taqman assay (*).

pEC50, pIC50: −log10 of the molar value.

Chain of Human recombinant DHX9 protein (Q08211 whole entry): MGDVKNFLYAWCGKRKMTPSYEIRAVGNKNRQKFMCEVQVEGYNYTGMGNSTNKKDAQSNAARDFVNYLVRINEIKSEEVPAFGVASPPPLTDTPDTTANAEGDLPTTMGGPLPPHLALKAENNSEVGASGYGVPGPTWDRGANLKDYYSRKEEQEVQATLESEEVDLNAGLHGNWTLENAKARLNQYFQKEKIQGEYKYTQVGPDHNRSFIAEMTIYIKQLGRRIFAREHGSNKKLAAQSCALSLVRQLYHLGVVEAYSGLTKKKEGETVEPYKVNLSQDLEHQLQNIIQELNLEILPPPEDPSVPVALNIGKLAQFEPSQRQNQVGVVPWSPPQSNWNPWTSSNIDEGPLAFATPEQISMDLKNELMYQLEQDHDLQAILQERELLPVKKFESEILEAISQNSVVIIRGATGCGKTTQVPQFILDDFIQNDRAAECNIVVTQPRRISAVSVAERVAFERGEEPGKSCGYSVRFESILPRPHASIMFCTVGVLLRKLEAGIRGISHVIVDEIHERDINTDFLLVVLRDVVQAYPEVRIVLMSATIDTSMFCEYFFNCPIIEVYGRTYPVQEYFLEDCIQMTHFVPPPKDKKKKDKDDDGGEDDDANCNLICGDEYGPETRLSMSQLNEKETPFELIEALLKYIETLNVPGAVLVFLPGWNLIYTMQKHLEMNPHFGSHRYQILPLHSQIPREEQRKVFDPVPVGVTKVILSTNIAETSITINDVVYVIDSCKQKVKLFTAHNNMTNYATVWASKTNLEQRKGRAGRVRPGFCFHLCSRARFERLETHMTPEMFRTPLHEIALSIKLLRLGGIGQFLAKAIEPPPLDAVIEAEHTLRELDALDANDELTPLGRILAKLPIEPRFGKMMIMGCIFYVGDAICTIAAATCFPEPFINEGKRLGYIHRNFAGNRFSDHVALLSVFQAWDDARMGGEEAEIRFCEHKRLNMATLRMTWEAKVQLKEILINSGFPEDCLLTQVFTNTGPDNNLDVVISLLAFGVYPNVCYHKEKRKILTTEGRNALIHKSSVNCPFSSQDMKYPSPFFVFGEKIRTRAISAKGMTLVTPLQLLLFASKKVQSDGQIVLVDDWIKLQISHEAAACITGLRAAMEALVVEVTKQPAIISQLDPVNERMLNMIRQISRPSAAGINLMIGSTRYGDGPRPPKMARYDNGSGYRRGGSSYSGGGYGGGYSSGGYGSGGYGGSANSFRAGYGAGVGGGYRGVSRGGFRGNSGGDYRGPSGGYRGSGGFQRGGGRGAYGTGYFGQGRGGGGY

For `CS(=O)(=O)Nc1cc(Cl)cc(NC(=O)c2cnn([C@@H]3CCCC[C@@H]3O)c2)c1` (relative stereo) [Example 153, N-(3-chloro-5-(methylsulfonamido)phenyl)-1-(2-cis-hydroxycyclohexyl)-1H-pyrazole-4-carboxamide], in experiment [1], the “DHX9 Biochemical Max Inhibition” value was 59.7% and the pIC50 was 6.59. In experiment [2], the pEC50 is 5.21.
As for `CC(Oc1cccnc1-c1cc(C(=O)Nc2cc(Cl)cc(NS(C)(=O)=O)c2)cn1C)c1cc(F)cc(C(F)(F)F)c1` (single isomer, unassigned) [Example 628, N-(3-chloro-5-methanesulfonamidophenyl)-5-{3-[1-[3-fluoro-5-(trifluoromethyl)phenyl]ethoxy]pyridin-2-yl}-1-methyl-1H-pyrrole-3-carboxamide], in experiment [1], the “DHX9 Biochemical Max Inhibition” value turned out to be 58.1 and the pIC50 is 6.27. Also, the pEC50 in experiment [3] (Taqman assay (*)) was 5.97.
Take `CC(Oc1cccnc1-c1cc(C(=O)Nc2cc(Cl)cc(NS(C)(=O)=O)c2)cn1C)c1cc(F)cc(C(F)(F)F)c1` (single isomer, unassigned) [Example 629, N-(3-chloro-5-methanesulfonamidophenyl)-5-{3-[1-[3-fluoro-5-(trifluoromethyl)phenyl]ethoxy]pyridin-2-yl}-1-methyl-1H-pyrrole-3-carboxamide]: in experiment [1], the “DHX9 Biochemical Max Inhibition” value came to 74.8 and the pIC50 is 7.54. Moreover, in experiment [3] (Taqman assay (*)), the pEC50 is 6.95.
With `Cn1cc(C(=O)Nc2cc(Cl)cc(NS(C)(=O)=O)c2)cc1-c1ncc(N2CC3C(C2)C3(C)C)cc1F` (centres unmarked) [Example 516], in experiment [1], the “DHX9 Biochemical Max Inhibition” value is given as 57.7 and the pIC50 is 6.69. Moreover, the pEC50 in experiment [3] (setting [4]) was 6.66.
For the compound `Cc1sc(C(=O)Nc2cc(Cl)cc(NS(C)(=O)=O)c2)cc1-c1ncc(S(C)(=O)=O)cn1` [Example 711], in experiment [1], the “DHX9 Biochemical Max Inhibition” value is reported as 69.3 and the pIC50 is 7.49.
For `CS(=O)(=O)Nc1cc(Cl)cc(NC(=O)c2cc(-c3ncc(F)cn3)n(C3CC3)c2)c1` [Example 712], in experiment [1], the “DHX9 Biochemical Max Inhibition” value is listed as 74.2 and the pIC50 is 7.25.
For `Cc1cc(C(=O)Nc2cc(Cl)cc(NS(C)(=O)=O)c2)cn1-c1ncccc1OCC1CC1` [Example 713], in experiment [1], the “DHX9 Biochemical Max Inhibition” value is reported as 76 and the pIC50 was 7.60.
With `Cn1cc(C(=O)Nc2cc(Cl)cc(NS(C)(=O)=O)c2)cc1-c1ncc(N2CCN(C(=O)C3CC3)CC2)cc1F` [Example 714], in experiment [1], the “DHX9 Biochemical Max Inhibition” value was 68.7 and the pIC50 was 8.28.
In the case of `Cc1sc(C(=O)Nc2cc(Cl)cc(NS(C)(=O)=O)c2)cc1-c1ncc(N2CC(F)(F)C2)cc1C#N` [Example 715], in experiment [1], the “DHX9 Biochemical Max Inhibition” value was found to be 67.8 and the pIC50 was 7.99.
For `Cc1sc(C(=O)Nc2cc(Cl)cc(NS(C)(=O)=O)c2)nc1-c1ccc(F)cn1` [Example 716], in experiment [1], the “DHX9 Biochemical Max Inhibition” value turned out to be 55.9 and the pIC50 is 6.89.
On to `CN(C)C(=O)c1cccc(OCc2cccc(F)c2)c1-n1cc(C(=O)Nc2cc(Cl)cc(NS(C)(=O)=O)c2)cn1` [Example 717], for which, in experiment [1], the “DHX9 Biochemical Max Inhibition” value is reported as 68.1 and the pIC50 was 6.70.
Turning to `CS(=O)(=O)Nc1cc(Cl)cc(NC(=O)c2cnn(-c3c(F)cccc3OCc3cncc(F)c3)c2)c1` [Example 718], in experiment [1], the “DHX9 Biochemical Max Inhibition” value is recorded as 72.7 and the pIC50 is 7.80.
Take `CS(=O)(=O)Nc1cc(Cl)cc(NC(=O)c2cnn(-c3ncc(F)cc3OCc3cnco3)c2)c1` [Example 719]: in experiment [1], the “DHX9 Biochemical Max Inhibition” value stood at 69.7 and the pIC50 is 7.07.
For the compound `Cc1sc(C(=O)Nc2cc(Cl)cc(NS(C)(=O)=O)c2)cc1-c1ncc(N(C)S(C)(=O)=O)cn1` [Example 720], in experiment [1], the “DHX9 Biochemical Max Inhibition” value worked out at 72.6 and the pIC50 was 7.60.
The matching figures for `CS(=O)(=O)Nc1cc(Cl)cc(NC(=O)c2cnn(-c3c(F)cccc3OCc3cnco3)c2)c1` [Example 721]: 68.1 and 6.64.
The matching figures for `CS(=O)(=O)Nc1cc(Cl)cc(NC(=O)c2cnn(-c3ccc(N4CC5(COC5)C4)cc3OCc3cccc(F)c3)c2)c1` [Example 722]: 74.4 and 7.72.
Turning to `CS(=O)(=O)Nc1cc(Cl)cc(NC(=O)c2cc(CO)n(-c3ncccc3OCc3cncc(F)c3)c2)c1` [Example 723], in experiment [1], the “DHX9 Biochemical Max Inhibition” value is 84.3 and the pIC50 is 8.80.
In the same order, the values of `Cc1nc(COc2cc(F)cnc2-c2cc(C(=O)Nc3cc(Cl)cc(NS(C)(=O)=O)c3)cn2C)cs1` [Example 724] are 80.4 and 7.71.
In the same order, the values of `Cc1noc(C)c1COc1cc(F)cnc1-c1cc(C(=O)Nc2cc(Cl)cc(NS(C)(=O)=O)c2)cn1C` [Example 725] are 74 and 7.44.
The matching figures for `Cn1cc(C(=O)Nc2cc(Cl)cc(NS(C)(=O)=O)c2)cc1-c1ncc(F)cc1OCc1cnnn1C` [Example 726]: 88.1 and 7.76.
As for `Cn1cc(C(=O)Nc2cc(Cl)cc(NS(C)(=O)=O)c2)cc1-c1ccccc1/C=C/c1cncc(F)c1` [Example 727], in experiment [1], the “DHX9 Biochemical Max Inhibition” value was 55.3 and the pIC50 is 5.04.
`Cn1cc(C(=O)Nc2cc(Cl)cc(NS(C)(=O)=O)c2)cc1-c1ncc(F)cc1CCc1cncc(F)c1` [Example 728]: in experiment [1], the “DHX9 Biochemical Max Inhibition” value worked out at 62.5 and the pIC50 was 6.80. In addition, in experiment [3] (setting [4]), the pEC50 was 5.87.
For the compound `Cn1cc(C(=O)Nc2cc(Cl)cc(NS(C)(=O)=O)c2)cc1-c1ncc(F)cc1/C=C/c1cncc(F)c1` [Example 729], in experiment [1], the “DHX9 Biochemical Max Inhibition” value turned out to be 45.5 and the pIC50 is 6.94.
Consider `CCc1cncc(COc2cccnc2-c2cc(C(=O)Nc3cc(Cl)cc(NS(C)(=O)=O)c3)cn2C)c1` [Example 730], for which, in experiment [1], the “DHX9 Biochemical Max Inhibition” value is given as 72.6 and the pIC50 is 7.93.
On to `CS(=O)(=O)Nc1cc(Cl)cc(NC(=O)c2cc(C(=O)N3CCOCC3)n(-c3ccccn3)c2)c1` [Example 731], for which, in experiment [1], the “DHX9 Biochemical Max Inhibition” value came to 69.1 and the pIC50 is 7.20.
With `Cc1sc(C(=O)Nc2cc(Cl)cc(NS(C)(=O)=O)c2)cc1-c1ncc(F)cc1OCc1cnco1` [Example 732], in experiment [1], the “DHX9 Biochemical Max Inhibition” value was determined as 70.8 and the pIC50 was 7.98.
For the compound `Cn1cc(C(=O)Nc2cc(Cl)cc(NS(C)(=O)=O)c2)cc1-c1ncc(N2CC(F)(F)C2)cc1OCc1cnco1` [Example 733], in experiment [1], the “DHX9 Biochemical Max Inhibition” value came to 61.3 and the pIC50 is 7.66.
The matching figures for `Cc1ncc(OCc2cc(F)cc(F)c2)c(-c2cc(C(=O)Nc3cc(Cl)cc(NS(C)(=O)=O)c3)cn2C)n1` [Example 734]: 71.2 and 8.18.
The matching figures for `CS(=O)(=O)Nc1cc(Cl)cc(NC(=O)c2cc(-c3ncc(F)cc3OCc3cncnc3)n(CC(F)(F)F)c2)c1` [Example 735]: 80.1 and 8.15.
In the case of `Cc1sc(C(=O)Nc2cc(Cl)cc(NS(C)(=O)=O)c2)cc1-c1c(F)cc(F)c[n+]1[O-]` [Example 736], in experiment [1], the “DHX9 Biochemical Max Inhibition” value was found to be 70.3 and the pIC50 is 7.26.
